Laboratory results published in BindingDB's records for doi:10.1016/s0960-894x(00)00465-0 (Boehringer Ingelheim Pharmaceuticals, 2001).
Non-standard residues stand in square brackets, D forms with d. Residues, ends and D or L forms follow the SMILES beside them. *: point of attachment. Hyp = O=C(O)[C@@H]1C[C@@H](O)CN1; Chg = N[C@H](C(=O)O)C1CCCCC1; Nva = CCC[C@H](N)C(=O)O; X1 = c1ccc2cc(C*)ccc2c1

Assay: Compound was evaluated for its inhibitory activity against porcine pancreatic elastase (PPE)

## CCC[C@H](NC(=O)[C@@H]1C[C@@H](OCc2ccc3ccccc3c2)CN1C(=O)[C@@H](NC(=O)[C@@H](NC(=O)[C@@H](CCC(=O)O)NC(=O)[C@H](CC(=O)O)NC(C)=O)C1CCCCC1)C(C)C)C(=O)O [(S)-2-{[(2S,4R)-1-((S)-2-{(S)-2-[(R)-2-((S)-2-Acetylamino-3-carboxy-propionylamino)-4-carboxy-butyrylamino]-2-cyclohexyl-acetylamino}-3-methyl-butyryl)-4-(naphthalen-2-ylmethoxy)-pyrrolidine-2-carbonyl]-amino}-pentanoic acid] (Ac-D[dE][Chg]V[Hyp](X1)[Nva]-OH)
  IC50: > 300 µM
